Measured values taken from US20230085307A1, “PYRIDAZINONE COMPOUND AND HERBICIDE” (NISSAN CHEMICAL CORPORATION, priority 2019, published 2023).

Key:
lambsquarters [1] = test: Test Example 4: herbicidal effect by soil treatment (Table 19, symbol O); format: in vivo, lambsquarters (Chenopodium album); conditions: amount of applied herbicide 320 g/ha
In short: (§1)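 Emulsion of test compound, water-diluted to predetermined amount, sprayed on soil after sowing (seed depth ~1.5 cm, sterilized diluvial soil). Greenhouse, 25–30° C. Effect graded at three weeks post-spray.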

redroot pigweed [2] = test: Test Example 5: herbicidal effect by foliage application, plastic box (Table 20, symbol N); format: in vivo, redroot pigweed (Amaranthus retroflexus); conditions: foliage application, 320 g/ha, three weeks after application
In short: (§2)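 Post-emergence foliar test in sterilized diluvial soil. Compound applied as water-diluted emulsion at a predetermined rate to 14-day-old plants; evaluation at three weeks.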

false cleavers [3] = test: Test Example 5: herbicidal effect by foliage application, plastic box (Table 20, symbol Q); format: in vivo, false cleavers (Galium spurium); conditions: foliage application, 320 g/ha, three weeks after application
In short: as §2

oval-leafed pondweed [4] = test: Test Example 2: herbicidal activity, application during weed generation under submerged conditions (Table 17, symbol C); format: in vivo, oval-leafed pondweed (Monochoria vaginalis); conditions: AAH 320 g/ha; application during weed generation, submerged conditions
In short: (§3)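 In this pot test, flooded alluvial soil (water depth 4 cm) holds all three species sown as a mixture. Once seedlings have one to two leaves, the compound's emulsion, thinned with water to the intended dose, is poured on the water; grading follows after three weeks on the earlier criteria.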

Japanese bulrush [5] = test: Test Example 1: herbicidal activity, application before weed generation under submerged conditions (Table 16, symbol B); format: in vivo, Japanese bulrush (Schoenoplectus juncoides); conditions: amount of applied herbicide 320 g/ha
In short: (§4)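 Emulsion formulation, water-diluted to set dose, was put onto the flooded surface (4 cm depth, alluvial soil) the same day weeds were sown and 2.5-leaf rice transplanted. After 3 weeks at 25-30 °C under glass, each species was rated 0 (≤5% kill) to 5 (≥90% kill).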

blackgrass [6] = test: Test Example 4: herbicidal effect by soil treatment (Table 19, symbol J); format: in vivo, blackgrass (Alopecurus myosuroides); conditions: amount of applied herbicide 320 g/ha
In short: as §1

late watergrass [7] = test: Test Example 2: herbicidal activity, application during weed generation under submerged conditions (Table 17, symbol A); format: in vivo, late watergrass (Echinochloa oryzicola); conditions: AAH 320 g/ha; application during weed generation, submerged conditions
In short: as §3

Italian ryegrass [8] = test: Test Example 5: herbicidal effect by foliage application, plastic box (Table 20, symbol K); format: in vivo, Italian ryegrass (Lolium multiflorum); conditions: foliage application, 320 g/ha, three weeks after application
In short: as §2

velvetleaf [9] = test: Test Example 5: herbicidal effect by foliage application, plastic box (Table 20, symbol M); format: in vivo, velvetleaf (Abutilon theophrasti); conditions: foliage application, 320 g/ha, three weeks after application
In short: as §2

false cleavers [10] = test: Test Example 4: herbicidal effect by soil treatment (Table 19, symbol Q); format: in vivo, false cleavers (Galium spurium); conditions: amount of applied herbicide 320 g/ha
In short: as §1

wild oat [11] = test: Test Example 5: herbicidal effect by foliage application, plastic box (Table 20, symbol I); format: in vivo, wild oat (Avena fatua); conditions: foliage application, 320 g/ha, three weeks after application
In short: as §2

Italian ryegrass [12] = test: Test Example 4: herbicidal effect by soil treatment (Table 19, symbol K); format: in vivo, Italian ryegrass (Lolium multiflorum); conditions: amount of applied herbicide 320 g/ha
In short: as §1

lambsquarters [13] = test: Test Example 5: herbicidal effect by foliage application, plastic box (Table 20, symbol O); format: in vivo, lambsquarters (Chenopodium album); conditions: foliage application, 320 g/ha, three weeks after application
In short: as §2

southern crabgrass [14] = test: Test Example 4: herbicidal effect by soil treatment (Table 19, symbol F); format: in vivo, southern crabgrass (Digitaria ciliaris); conditions: amount of applied herbicide 320 g/ha
In short: as §1

Japanese bulrush [15] = test: Test Example 2: herbicidal activity, application during weed generation under submerged conditions (Table 17, symbol B); format: in vivo, Japanese bulrush (Schoenoplectus juncoides); conditions: AAH 320 g/ha; application during weed generation, submerged conditions
In short: as §3

windgrass [16] = test: Test Example 5: herbicidal effect by foliage application, plastic box (Table 20, symbol L); format: in vivo, windgrass (Apera spica-venti); conditions: foliage application, 320 g/ha, three weeks after application
In short: as §2

wild oat [17] = test: Test Example 4: herbicidal effect by soil treatment (Table 19, symbol I); format: in vivo, wild oat (Avena fatua); conditions: amount of applied herbicide 320 g/ha
In short: as §1

chickweed [18] = test: Test Example 4: herbicidal effect by soil treatment (Table 19, symbol P); format: in vivo, common chickweed (Stellaria media); conditions: amount of applied herbicide 320 g/ha
In short: as §1

persian speedwell [19] = test: Test Example 4: herbicidal effect by soil treatment (Table 19, symbol R); format: in vivo, Persian speedwell (Veronica persica); conditions: amount of applied herbicide 320 g/ha
In short: as §1

persian speedwell [20] = test: Test Example 5: herbicidal effect by foliage application, plastic box (Table 20, symbol R); format: in vivo, Persian speedwell (Veronica persica); conditions: foliage application, 320 g/ha, three weeks after application
In short: as §2

oval-leafed pondweed [21] = test: Test Example 1: herbicidal activity, application before weed generation under submerged conditions (Table 16, symbol C); format: in vivo, oval-leafed pondweed (Monochoria vaginalis); conditions: amount of applied herbicide 320 g/ha
In short: as §4

windgrass [22] = test: Test Example 4: herbicidal effect by soil treatment (Table 19, symbol L); format: in vivo, windgrass (Apera spica-venti); conditions: amount of applied herbicide 320 g/ha
In short: as §1

velvetleaf [23] = test: Test Example 4: herbicidal effect by soil treatment (Table 19, symbol M); format: in vivo, velvetleaf (Abutilon theophrasti); conditions: amount of applied herbicide 320 g/ha
In short: as §1

green foxtail [24] = test: Test Example 4: herbicidal effect by soil treatment (Table 19, symbol G); format: in vivo, green foxtail (Setaria viridis); conditions: amount of applied herbicide 320 g/ha
In short: as §1

chickweed [25] = test: Test Example 5: herbicidal effect by foliage application, plastic box (Table 20, symbol P); format: in vivo, common chickweed (Stellaria media); conditions: foliage application, 320 g/ha, three weeks after application
In short: as §2

barnyard grass [26] = test: Test Example 4: herbicidal effect by soil treatment (Table 19, symbol H); format: in vivo, barnyard grass (Echinochloa crus-galli); conditions: amount of applied herbicide 320 g/ha
In short: as §1

blackgrass [27] = test: Test Example 5: herbicidal effect by foliage application, plastic box (Table 20, symbol J); format: in vivo, blackgrass (Alopecurus myosuroides); conditions: foliage application, 320 g/ha, three weeks after application
In short: as §2

southern crabgrass [28] = test: Test Example 5: herbicidal effect by foliage application, plastic box (Table 20, symbol F); format: in vivo, southern crabgrass (Digitaria ciliaris); conditions: foliage application, 320 g/ha, three weeks after application
In short: as §2

redroot pigweed [29] = test: Test Example 4: herbicidal effect by soil treatment (Table 19, symbol N); format: in vivo, redroot pigweed (Amaranthus retroflexus); conditions: amount of applied herbicide 320 g/ha
In short: as §1

late watergrass [30] = test: Test Example 1: herbicidal activity, application before weed generation under submerged conditions (Table 16, symbol A); format: in vivo, late watergrass (Echinochloa oryzicola); conditions: amount of applied herbicide 320 g/ha
In short: as §4

green foxtail [31] = test: Test Example 5: herbicidal effect by foliage application, plastic box (Table 20, symbol G); format: in vivo, green foxtail (Setaria viridis); conditions: foliage application, 320 g/ha, three weeks after application
In short: as §2

barnyard grass [32] = test: Test Example 5: herbicidal effect by foliage application, plastic box (Table 20, symbol H); format: in vivo, barnyard grass (Echinochloa crus-galli); conditions: foliage application, 320 g/ha, three weeks after application
In short: as §2

CCCC(=O)Oc1c(C)nn(C)c(=O)c1-c1c(-c2ccc(F)cc2)sc2cc(OC)ccc12 [3-064]
O: lambsquarters, herbicidal effect grade (lambsquarters [1]): 3 (Herbicidal rate of 40% or more and less than 70%)
N: redroot pigweed, herbicidal effect grade (redroot pigweed [2]): 0 (Herbicidal rate of 5% or less (almost no effect))
Q: false cleavers, herbicidal effect grade (false cleavers [3]): 0 (Herbicidal rate of 5% or less (almost no effect))
herbicidal effect rating, C: oval-leafed pondweed (oval-leafed pondweed [4]): 3 (Herbicidal rate of 40% or more and less than 70%)
Herbicidal effect, B: Japanese bulrush (Japanese bulrush [5]): 3 (Herbicidal rate of 40% or more and less than 70%)
J: blackgrass, herbicidal effect grade (blackgrass [6]): 0 (Herbicidal rate of 5% or less (almost no effect))
herbicidal effect rating, A: late watergrass (late watergrass [7]): 0 (Herbicidal rate of 5% or less (almost no effect))
K: Italian ryegrass, herbicidal effect grade (Italian ryegrass [8]): 0 (Herbicidal rate of 5% or less (almost no effect))
M: velvetleaf, herbicidal effect grade (velvetleaf [9]): 1 (Herbicidal rate of 5% or more and less than 20%)
Q: false cleavers, herbicidal effect grade (false cleavers [10]): 0 (Herbicidal rate of 5% or less (almost no effect))
I: wild oat, herbicidal effect grade (wild oat [11]): 0 (Herbicidal rate of 5% or less (almost no effect))
K: Italian ryegrass, herbicidal effect grade (Italian ryegrass [12]): 0 (Herbicidal rate of 5% or less (almost no effect))
O: lambsquarters, herbicidal effect grade (lambsquarters [13]): 2 (Herbicidal rate of 20% or more and less than 40%)
F: southern crabgrass, herbicidal effect grade (southern crabgrass [14]): 0 (Herbicidal rate of 5% or less (almost no effect))
herbicidal effect rating, B: Japanese bulrush (Japanese bulrush [15]): 1 (Herbicidal rate of 5% or more and less than 20%)
L: windgrass, herbicidal effect grade (windgrass [16]): 0 (Herbicidal rate of 5% or less (almost no effect))
I: wild oat, herbicidal effect grade (wild oat [17]): 0 (Herbicidal rate of 5% or less (almost no effect))
P: chickweed, herbicidal effect grade (chickweed [18]): 4 (Herbicidal rate of 70% or more and less than 90%)
R: persian speedwell, herbicidal effect grade (persian speedwell [19]): 4 (Herbicidal rate of 70% or more and less than 90%)
R: persian speedwell, herbicidal effect grade (persian speedwell [20]): 4 (Herbicidal rate of 70% or more and less than 90%)
Herbicidal effect, C: oval-leafed pondweed (oval-leafed pondweed [21]): 4 (Herbicidal rate of 70% or more and less than 90%)
L: windgrass, herbicidal effect grade (windgrass [22]): 0 (Herbicidal rate of 5% or less (almost no effect))
M: velvetleaf, herbicidal effect grade (velvetleaf [23]): 0 (Herbicidal rate of 5% or less (almost no effect))
G: green foxtail, herbicidal effect grade (green foxtail [24]): 0 (Herbicidal rate of 5% or less (almost no effect))
P: chickweed, herbicidal effect grade (chickweed [25]): 5 (Herbicidal rate of 90% or more (almost completely withered))
H: barnyard grass, herbicidal effect grade (barnyard grass [26]): 0 (Herbicidal rate of 5% or less (almost no effect))
J: blackgrass, herbicidal effect grade (blackgrass [27]): 0 (Herbicidal rate of 5% or less (almost no effect))
F: southern crabgrass, herbicidal effect grade (southern crabgrass [28]): 0 (Herbicidal rate of 5% or less (almost no effect))
N: redroot pigweed, herbicidal effect grade (redroot pigweed [29]): 2 (Herbicidal rate of 20% or more and less than 40%)
Herbicidal effect, A: late watergrass (late watergrass [30]): 0 (Herbicidal rate of 5% or less (almost no effect))
G: green foxtail, herbicidal effect grade (green foxtail [31]): 0 (Herbicidal rate of 5% or less (almost no effect))
H: barnyard grass, herbicidal effect grade (barnyard grass [32]): 0 (Herbicidal rate of 5% or less (almost no effect))

COc1ccccc1-c1sc2ccc(I)cc2c1-c1c(OC)c(C)nn(C)c1=O [Compound No. 2-131, 4-(5-iodo-2-(2-methoxyphenyl)benzo[b]thiophen-3-yl)-5-methoxy-2,6-dimethylpyridazin-3(2H)-one]
melting point: 161 to 163 °C

COc1ccccc1-c1sc2ccc(N)cc2c1-c1c(OC)c(C)nn(C)c1=O [Compound No. 2-174, 4-(5-amino-2-(2-methoxyphenyl)benzo[b]thiophen-3-yl)-5-methoxy-2,6-dimethylpyridazin-3(2H)-one]
melting point: 219 to 221 °C
